Experiment [1] addresses Histamine H1 receptor (Homo sapiens) (UniProt P35367). The following applies: Compound concentration 10.0 uM.
The target in experiment [2] is T1, Dual specificity protein kinase TTK (Homo sapiens) (UniProt P33981).
T1 sequence (whole entry): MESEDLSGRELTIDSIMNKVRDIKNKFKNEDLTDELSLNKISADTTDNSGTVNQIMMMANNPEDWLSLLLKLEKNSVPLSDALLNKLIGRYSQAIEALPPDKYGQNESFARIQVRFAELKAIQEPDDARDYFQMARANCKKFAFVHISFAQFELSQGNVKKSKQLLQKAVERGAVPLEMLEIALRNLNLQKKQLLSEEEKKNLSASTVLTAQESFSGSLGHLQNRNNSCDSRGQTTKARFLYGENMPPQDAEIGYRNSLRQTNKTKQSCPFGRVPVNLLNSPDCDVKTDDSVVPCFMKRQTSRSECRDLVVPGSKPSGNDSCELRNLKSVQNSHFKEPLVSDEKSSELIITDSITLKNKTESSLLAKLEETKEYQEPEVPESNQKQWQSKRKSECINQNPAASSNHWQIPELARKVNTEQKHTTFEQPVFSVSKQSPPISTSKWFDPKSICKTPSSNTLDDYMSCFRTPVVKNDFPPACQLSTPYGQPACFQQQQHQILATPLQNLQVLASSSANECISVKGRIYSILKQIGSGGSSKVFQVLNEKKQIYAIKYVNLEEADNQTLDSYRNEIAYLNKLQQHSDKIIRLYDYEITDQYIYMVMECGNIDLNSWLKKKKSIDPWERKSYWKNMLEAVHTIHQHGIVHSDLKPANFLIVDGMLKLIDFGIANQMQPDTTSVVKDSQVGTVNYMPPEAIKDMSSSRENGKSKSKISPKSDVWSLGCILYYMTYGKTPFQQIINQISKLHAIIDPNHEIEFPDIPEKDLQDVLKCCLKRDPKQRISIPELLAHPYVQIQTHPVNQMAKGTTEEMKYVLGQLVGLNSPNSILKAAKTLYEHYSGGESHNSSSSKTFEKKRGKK
Description: TTK SGC Tm panel (DSF). The settings on record: for ΔTm: Compound concentration 10.0 uM.

In experiment [3] the target is 5-hydroxytryptamine receptor 1B (Homo sapiens) (UniProt P28222). The following applies: Compound concentration 10.0 uM.
Sequence of 5-hydroxytryptamine receptor 1B (Homo sapiens) (P28222 whole entry): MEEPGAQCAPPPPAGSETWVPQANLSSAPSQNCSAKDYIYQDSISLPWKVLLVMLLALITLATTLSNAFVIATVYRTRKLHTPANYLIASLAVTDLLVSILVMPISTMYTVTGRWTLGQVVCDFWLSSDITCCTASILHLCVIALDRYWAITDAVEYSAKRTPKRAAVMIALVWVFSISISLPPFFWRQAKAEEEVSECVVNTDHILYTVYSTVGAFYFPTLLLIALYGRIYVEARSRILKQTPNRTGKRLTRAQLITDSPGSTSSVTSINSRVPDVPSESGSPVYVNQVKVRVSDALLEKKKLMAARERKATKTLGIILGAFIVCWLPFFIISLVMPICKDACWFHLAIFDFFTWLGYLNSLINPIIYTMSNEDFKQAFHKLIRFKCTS
Experiment [4] addresses T2, Serine/threonine-protein kinase haspin (Homo sapiens) (UniProt Q8TF76).
T2 sequence (whole entry): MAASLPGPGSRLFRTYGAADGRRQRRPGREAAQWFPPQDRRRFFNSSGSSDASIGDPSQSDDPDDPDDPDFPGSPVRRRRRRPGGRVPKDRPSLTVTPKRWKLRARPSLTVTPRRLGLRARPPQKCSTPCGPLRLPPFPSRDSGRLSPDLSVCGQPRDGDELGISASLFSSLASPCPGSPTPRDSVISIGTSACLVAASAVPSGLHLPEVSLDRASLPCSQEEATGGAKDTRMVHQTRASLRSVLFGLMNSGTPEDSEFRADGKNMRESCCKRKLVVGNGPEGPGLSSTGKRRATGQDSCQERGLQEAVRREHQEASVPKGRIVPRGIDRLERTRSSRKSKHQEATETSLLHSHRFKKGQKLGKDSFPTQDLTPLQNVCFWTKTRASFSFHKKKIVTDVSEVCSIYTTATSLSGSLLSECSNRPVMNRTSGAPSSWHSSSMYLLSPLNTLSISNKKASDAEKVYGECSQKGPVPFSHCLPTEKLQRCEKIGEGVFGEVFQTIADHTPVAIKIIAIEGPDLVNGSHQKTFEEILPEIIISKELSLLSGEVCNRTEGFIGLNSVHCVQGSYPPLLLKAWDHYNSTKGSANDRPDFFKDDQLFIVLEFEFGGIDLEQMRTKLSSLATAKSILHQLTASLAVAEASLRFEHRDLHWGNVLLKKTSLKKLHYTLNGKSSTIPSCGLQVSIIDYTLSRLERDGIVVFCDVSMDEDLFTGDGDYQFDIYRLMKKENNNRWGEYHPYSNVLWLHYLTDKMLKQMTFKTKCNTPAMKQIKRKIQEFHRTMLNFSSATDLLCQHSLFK
As to the kind of experiment: GSG2 SGC Tm panel (DSF). The settings on record: for ΔTm: Compound concentration 10.0 uM.

For experiment [5], the target named is T3, Cytoplasmic tyrosine-protein kinase BMX (Homo sapiens) (UniProt P51813).
T3 sequence (whole entry): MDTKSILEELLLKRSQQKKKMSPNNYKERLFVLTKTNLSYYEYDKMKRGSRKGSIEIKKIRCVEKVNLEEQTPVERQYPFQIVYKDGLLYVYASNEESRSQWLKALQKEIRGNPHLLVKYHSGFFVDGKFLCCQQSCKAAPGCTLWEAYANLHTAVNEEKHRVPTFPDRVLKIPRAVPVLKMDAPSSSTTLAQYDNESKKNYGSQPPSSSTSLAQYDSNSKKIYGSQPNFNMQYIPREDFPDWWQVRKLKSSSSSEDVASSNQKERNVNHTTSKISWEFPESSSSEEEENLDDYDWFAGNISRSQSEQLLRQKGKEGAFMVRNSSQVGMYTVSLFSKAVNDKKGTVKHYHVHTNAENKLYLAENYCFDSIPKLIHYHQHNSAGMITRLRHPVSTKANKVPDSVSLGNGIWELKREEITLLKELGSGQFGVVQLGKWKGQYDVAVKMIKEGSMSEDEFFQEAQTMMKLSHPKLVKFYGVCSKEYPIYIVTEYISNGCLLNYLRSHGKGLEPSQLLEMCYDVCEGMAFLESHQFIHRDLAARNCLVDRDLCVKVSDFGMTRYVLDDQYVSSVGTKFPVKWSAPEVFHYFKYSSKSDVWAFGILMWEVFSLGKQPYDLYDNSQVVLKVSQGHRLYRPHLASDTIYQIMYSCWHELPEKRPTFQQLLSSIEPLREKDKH
As to the kind of experiment: BMX SGC Tm panel (DSF). The settings on record: for ΔTm: Compound concentration 10.0 uM.

Sequence of Histamine H1 receptor (Homo sapiens) (P35367 whole entry): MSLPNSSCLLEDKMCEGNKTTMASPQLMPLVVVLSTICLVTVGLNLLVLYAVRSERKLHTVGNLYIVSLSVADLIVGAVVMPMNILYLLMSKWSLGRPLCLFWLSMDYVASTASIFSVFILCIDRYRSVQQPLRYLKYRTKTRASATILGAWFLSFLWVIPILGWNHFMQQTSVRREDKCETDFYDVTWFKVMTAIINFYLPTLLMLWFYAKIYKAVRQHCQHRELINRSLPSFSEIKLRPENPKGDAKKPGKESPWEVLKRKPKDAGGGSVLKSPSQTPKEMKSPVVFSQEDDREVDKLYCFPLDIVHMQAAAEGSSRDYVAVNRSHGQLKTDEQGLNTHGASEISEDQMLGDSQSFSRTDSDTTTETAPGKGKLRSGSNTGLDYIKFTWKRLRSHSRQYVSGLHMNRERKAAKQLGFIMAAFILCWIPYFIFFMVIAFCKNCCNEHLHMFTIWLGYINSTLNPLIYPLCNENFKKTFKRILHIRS

Broadly, the inhibition is the drop in the measured response relative to a control, in per cent. Turning to `CCC[C@H]1CNCc2c1[nH]c(=O)c(C#N)c2N1CCC2(CC1)CC2`, the inhibition in experiment [1] is -2.94%; in experiment [3], -6.99%. The delta Tm Staurosporine positive control in experiment [2] stood at 7.9; in experiment [4], 8.53; in experiment [5], 7.31. Further, the ΔTm is 0.222 in experiment [2], -0.0501 in experiment [4] and -0.224 in experiment [5].
Turning to `CCC[C@@H]1CNCc2c1[nH]c(=O)c(C#N)c2N1CCC2(CC1)CC2`, the inhibition in experiment [1] was 4.72%; in experiment [3], 2.21%. Besides, the delta Tm Staurosporine positive control in experiment [2] turned out to be 7.9; in experiment [4], 8.53; in experiment [5] it was 7.31. Besides, the ΔTm in experiment [2] was 0.316; in experiment [4], -0.64; in experiment [5], -0.292.
